Laboratory results taken from the supplement of paper PMC8671470.

Tests used:
Experiment in all cases: cell viability (% survival relative to DMSO control, bortezomib = 0%); higher = less cytotoxic
Conditions in all cases: 72 h
MOLM-13 = test system: MOLM-13
Summary of the method: (§1)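 In 384-well plates pre-printed with compounds at 1, 10, 100, 1000 or 10000 nM, duplicate wells received cells from 10 AML and 5 CML lines at densities within the linear growth range. The plates stayed at 37 °C with 5% CO2 for 72 h before CellTiter-Glo luminescence was recorded. Each entry is averaged percent survival. Scaling placed vehicle at 100% and a 10 µM positive control at 0%.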

KU-812 = test system: KU-812
Summary of the method: as §1

NOMO-1 = test system: NOMO-1
Summary of the method: as §1

THP-1 = test system: THP-1
Summary of the method: as §1

| Structure (SMILES) | cell viability (MOLM-13; 1 nM) [%] | cell viability (MOLM-13; 10 nM) [%] | cell viability (MOLM-13; 100 nM) [%] | cell viability (MOLM-13; 1000 nM) [%] | cell viability (MOLM-13; 10000 nM) [%] | cell viability (KU-812; 1 nM) [%] | cell viability (KU-812; 10 nM) [%] | cell viability (KU-812; 100 nM) [%] | cell viability (KU-812; 1000 nM) [%] | cell viability (KU-812; 10000 nM) [%] | cell viability (NOMO-1; 1 nM) [%] | cell viability (NOMO-1; 10 nM) [%] | cell viability (NOMO-1; 100 nM) [%] | cell viability (NOMO-1; 1000 nM) [%] | cell viability (NOMO-1; 10000 nM) [%] | cell viability (THP-1; 1 nM) [%] | cell viability (THP-1; 10 nM) [%] | cell viability (THP-1; 100 nM) [%] | cell viability (THP-1; 1000 nM) [%] | cell viability (THP-1; 10000 nM) [%] |
| --- | --- | --- | --- | --- | --- | --- | --- | --- | --- | --- | --- | --- | --- | --- | --- | --- | --- | --- | --- | --- |
| CN(C)C(=O)n1nnnc1Cc1ccc(-c2ccccc2)cc1 | 99 | 122 | 115 | 104 | 0.746 | 101 | 101 | 96.5 | 77.9 | 3.07 | 105 | 99.4 | 96.7 | 86.9 | 26.5 | 103 | 112 | 102 | 67.6 | 35 |
| Cc1[nH]n(-c2ccccc2)c(=O)c1C1(C(F)(F)F)C(=O)N(c2ccccc2)C2=C1C(=O)CC(C)(C)C2 (stereo not given) | 91.4 | 114 | 98.5 | 100 | 99.8 | 104 | 94.3 | 97.7 | 111 | 95.3 | 104 | 94.6 | 108 | 101 | 101 | 101 | 97.5 | 93.8 | 93.2 | 92 |
| c1ccc2nc(-c3nnc4sc(-c5cnccn5)nn34)ccc2c1 | 99.6 | 108 | 95.3 | 86.7 | 90.4 | 105 | 115 | 94.9 | 91.8 | 95.7 | 106 | 109 | 99.5 | 93.7 | 101 | 105 | 103 | 105 | 88.5 | 99.3 |
| CC(C)(CS(=O)(=O)[O-])NC(=O)CC[N+](C)(C)CCO | 121 | 112 | 97.2 | 82.3 | 117 | 99.7 | 98.6 | 99.3 | 89.4 | 107 | 94.8 | 102 | 96 | 94.3 | 101 | 101 | 102 | 99.5 | 93.2 | 120 |
| C[C@H]1O[C@H](O[C@H]2[C@H](O)[C@@H](O)[C@@H](O[C@H]3[C@H](O)[C@@H](O)C(O)O[C@@H]3CO)O[C@@H]2CO)[C@H](O)[C@@H](O)[C@@H]1N[C@H]1C=C(CO)[C@@H](O)[C@H](O)[C@H]1O (mixture of isomers) [Acarbose] | 133 | 86.7 | 106 | 95.8 | 94.9 | 91.8 | 94.5 | 107 | 114 | 93.9 | 98.1 | 97.7 | 103 | 96.1 | 88.4 | 87.6 | 107 | 96.9 | 95.1 | 97.1 |
| CC(=O)N1CCN(c2ccc(OC[C@@H]3CO[C@@](Cn4ccnc4)(c4ccc(Cl)cc4Cl)O3)cc2)CC1 (racemic) [Ketoconazole] | 92.5 | 110 | 100 | 104 | 88.1 | 100 | 102 | 95.1 | 105 | 70.5 | 102 | 95.5 | 100 | 99.8 | 99.5 | 105 | 95.9 | 97.4 | 104 | 91.1 |
| OC[C@H]1OC(O)C[C@@H](O)[C@@H]1O (stereo not given in full) [2-deoxyglucose] | 86.7 | 108 | 93 | 90.1 | 86.4 | 105 | 101 | 101 | 85.1 | 95.5 | 112 | 100 | 107 | 87.9 | 93.6 | 92 | 96.1 | 105 | 86.9 | 100 |
| O=C(C(=O)c1ccc(Br)cc1)c1ccc(Br)cc1 [4,4'-Dibromobenzil] | 87 | 83.8 | 80.4 | 87.5 | 93.8 | 86.9 | 98.3 | 104 | 103 | 91.5 | 95.6 | 110 | 99.8 | 104 | 96.2 | 98.2 | 103 | 100 | 95 | 97.6 |
| NS(=O)(=O)c1ccc(NC(=O)Cc2ccccc2)cc1 [4-(2-Phenylacetamido)Benzenesulfonamide] | 95.7 | 99.9 | 81 | 84.6 | 81.3 | 92.1 | 99.1 | 105 | 105 | 107 | 97.5 | 102 | 108 | 109 | 107 | 89.8 | 105 | 109 | 99 | 87.8 |
| NCc1ccc(S(N)(=O)=O)cc1 [4-Homosulfanilamide] | 80.7 | 93.2 | 87.3 | 80 | 105 | 97.9 | 93.1 | 96.3 | 100 | 98.1 | 97 | 96.1 | 98.3 | 99.8 | 100 | 98.5 | 92.5 | 105 | 96.2 | 99.5 |
| NCc1ccc(-c2cccnc2)s1 [(5-Pyrid-3-YLTHIEN-2-YL)METHYLAMINE] | 100 | 102 | 93.7 | 97.8 | 91.8 | 104 | 107 | 97.7 | 104 | 85.1 | 109 | 105 | 97.5 | 109 | 87.9 | 109 | 111 | 99.6 | 104 | 93 |
| CC(=O)N[C@@H](CS)C(=O)O [Acetylcysteine] | 107 | 107 | 81.8 | 110 | 105 | 102 | 93.4 | 87.9 | 97.1 | 97 | 105 | 99 | 98.8 | 93.5 | 103 | 103 | 98.8 | 101 | 100 | 102 |
| CCCCC/C=C\C/C=C\C/C=C\C/C=C\CCCC(=O)C(F)(F)F [Arachidonyl trifluoromethyl ketone] | 103 | 74 | 85.8 | 102 | 86.4 | 104 | 86.9 | 88.4 | 68.5 | 61.7 | 90.4 | 98.7 | 92.1 | 84.5 | 79.9 | 95.2 | 103 | 94.1 | 87.5 | 61.1 |
